Test results: article PMC7412250, “Novel Chrysin-De-Allyl PAC-1 Hybrid Analogues as Anticancer Compounds: Design, Synthesis, and Biological Evaluation” (Molecules, 2020)

How the values were obtained:
MDA-MB-231 cells [1] = assay: Western blot of apoptotic proteins (Bak, cytochrome c, caspase-7, caspase-9, mTOR); type: cell-based, human; details: for caspase 7 activation / cleavage of the initiator caspase, caspase 9 / expression of cytochrome c: compared to vehicle; for mTOR expression: 5 or 10 µM; for expression of Bak: compared to cells incubated in the absence of lead compounds
Method: To measure the expression of Bak, cytochrome c, caspase-7, caspase-9, and mTOR, Western blotting was performed by lysing MDA-MB-231 cells using a lysis buffer (50 mM Tris–HCl, 150 mM NaCl, 1 mM EDTA, 0.5% NP-40, 1% Triton, 0.1% SDS) containing a protease inhibitor cocktail that consisted of Aprotinin, Bestatin, E-64, Leupeptin, and Pepstatin A (Sigma-Aldrich Life Science, St. Louis, MO, USA). The bicinchoninic acid (BCA) quantification assay was used to determine the protein levels in the cell extracts (G-BIOSCIENCES, St. Louis, MO, USA). The extracted proteins were loaded onto a 10–20% tris-glycine gel. After separation, the proteins were transferred from the gel onto a polyvinylidene difluoride (PVDF) membrane. The membranes were blocked using 5% milk in Tris-buffered saline Tween 20 for 30 min and incubated overnight with primary antibodies against Bak (1:1000), cytochrome C (1:1000), caspase-3 (1:1000), caspase 7 (1:1000), caspase 9 (1:1000), mTOR (1:1000), or B-actin (1:2000) in 5% BSA (bovine serum albumin) at 4 °C. The next day, membranes were washed and incubated with horseradish peroxidase-labelled (HRP) anti-rabbit secondary antibody (1:5000 dilutions). The membrane was incubated with the antibody for an additional 1 h. Subsequently, the membranes were washed and developed by Clarity Western ECL substrate (Bio-Rad; Hercules, CA, USA). Protein was detected using a ChemiDoc Imaging System (Bio-Rad). Densitometry analyses of the blots for the detected protein were quantified using the ImageJ software. Data was calculated as ratios of protein/β-actin.

MDA-MB-231 cells [2] = assay: Morphological observation of cells; type: cell-based, human; details: 20 µM
Method: Figure 3 Effects of 4g and 4i on cellular morphology, mitochondrial membrane potential, and cell cycle (A) Morphological observations of MDA-MB-231 cells incubated with 0, 5, and 20 µM concentrations of 4g and 4i at different time intervals of 0, 24, 48, and 72 h, respectively; (B) The MDA-MB-231 cells in complete medium were incubated with 4g and 4i at 0, 5, or 10 µM for 24 h. Cells were then incubated with the reagents of the MitoTracker Red and Alexa Fluor 488 annexin V kits for flow cytometry. Representative results of MDA-MB-231 cells from two independent experiments, each performed in triplicate, are shown; (C) Histograms quantitatively summarize the results following incubation with 4g and 4i, respectively; (D) The induction of cell cycle arrest in MDA-MB-231 cells by 4g and 4i is shown. The MDA-MB-231 cells were incubated with different concentrations (0, 5, and 10 µM) of 4g and 4i for 24 h and were subjected to cell cycle analysis by flow cytometry of PI (X axis)/cell counts (Y axis); (E) A histogram quantitatively summarizing the change in % of cells in each phase of the cell cycle due to incubation with 4g and 4i. The data represents means ± SEM of three independent experiments performed in triplicate with **** p < 0.0001 vs. control group. […]

SMILES	caspase 7 activation (MDA-MB-231 cells [1]; 10 µM)	cleavage of the initiator caspase, caspase 9 (MDA-MB-231 cells [1]; 10 µM)	expression of cytochrome c (MDA-MB-231 cells [1]; 10 µM)	mTOR expression (MDA-MB-231 cells [1])	expression of Bak (MDA-MB-231 cells [1])	cellular morphology (MDA-MB-231 cells [2])	cleavage of the initiator caspase, caspase 9 (MDA-MB-231 cells [1]; 5 µM)	expression of cytochrome c (MDA-MB-231 cells [1]; 5 µM)	caspase 7 activation (MDA-MB-231 cells [1]; both concentrations (5 and 10 µM))
O=C(COc1cc(O)c2c(=O)cc(-c3ccccc3)oc2c1)N/N=C/c1ccc(O)c(O)c1O [Compound 4i, (E,Z)-2-((5-Hydroxy-4-oxo-2-phenyl-4H-chromen-7-yl)oxy)-N’-(2,3,4-trihydroxybenzylidene)acetohydrazide]	activated caspase 7	significant cleavage	significant increase	no significant change	increase	decreased the number of adherent MDA-MB-231 cells and induced cellular shrinkage			
O=C(COc1cc(O)c2c(=O)cc(-c3ccccc3)oc2c1)N/N=C/c1ccc(O)cc1O [Compound 4g, (E,Z)-N’-(2,4-Dihydroxybenzylidene)-2-((5-hydroxy-4-oxo-2-phenyl-4H-chromen-7-yl)oxy)acetohydrazide]				no significant change	increase	decreased the number of adherent MDA-MB-231 cells and induced cellular shrinkage	significant cleavage	significant increase	activated caspase 7
